In this assay the test system is Pseudomonas aeruginosa. Briefly: MIC/FIC determination of SNP alone and in combination with antimicrobial agents (96-well microtiter plate, OD 670 nm). It counts as cell-based, Pseudomonas aeruginosa ATCC 27853. Here is the method: A few colonies of Pseudomonas aerugionsa ATCC 27853 were removed from secondary working cultures plated on Trypticase Soy Agar (hereinafter “TSA”) with 5% sheep's blood and added to 10 ml of Trypticase Soy Broth (hereinafter “TSB”). The vials were vortexed for approximately 30 seconds and incubated for 4 hours in a shaker incubator. Following incubation, they were removed and vortexed once more. The optical densities of the inoculum suspensions were read at a wavelength of 670 nm. The inoculum suspensions were subsequently diluted in sterile Cation Adjusted Mueller-Hinton Broth (hereinafter “CAMHB”) to a final concentration of 1-5×10^6 cfu/ml.
SNP was dissolved and diluted in sterile deionized water to get working concentrations of 1%, 0.9%, 0.8%, 0.7%, 0.6%, 0.5%, 0.4%, 0.3%, 0.2%, and 0.1% in the wells of a 96-well micro titer plate.
Chlorhexidine diacetate (hereinafter “CHA”) and gentian violet (hereinafter “GV”) were dissolved in sterile water. Rifampin (hereinafter “Rif”) was dissolved in dimethylsulfoxide (hereinafter “DMSO”). Silver nano particles were dispersed in sterile water.
A sterile 96 well micro titer plate was used to test the following: SNP alone and SNP in combination with CHA, GV, Rif, and Silver at concentrations as stated above. All tests were performed in triplicate.
Once all test wells had been filled, the lid of the plate was replaced and the plate was inserted into a Ziplock™ bag and sealed to reduce evaporation. Each plate was incubated without shaking at 37° C. for 18-46 hours depending on the microorganism.
After the appropriate incubation time had been met, the micro titer plate was removed from the incubator. The plate was then read on a Bio-Tek plate reader at a wavelength of 670 nm with the lid off.

As for `CO[C@H]1/C=C/O[C@@]2(C)Oc3c(C)c(O)c4c(O)c(c(/C=N/N5CCN(C)CC5)c(O)c4c3C2=O)NC(=O)/C(C)=C\C=C\[C@H](C)[C@H](O)[C@@H](C)[C@@H](O)[C@@H](C)[C@H](OC(C)=O)[C@@H]1C` [Rifampin], the “inhibitory concentration in combination with SNP as compared to alone” value (from here on “inhibitory concentration … compared to alone”) is “lower inhibitory concentrations”. Besides, the MIC/FIC (SNP 0% (agent alone)) is listed as 16 PPM. Further, the MIC/FIC (in combination with SNP 0.2%) is reported as 16 PPM. Also, the MIC/FIC (in combination with SNP 0.4%) was 2-4 PPM. Further, the MIC/FIC (in combination with SNP 0.6%) is given as 0 PPM.

For `N=C(NCCCCCCNC(=N)NC(=N)Nc1ccc(Cl)cc1)NC(=N)Nc1ccc(Cl)cc1.Nc1ccc(P(=O)(O)O)cc1.Nc1ccc(P(=O)(O)O)cc1` [CHP, chlorhexidine dipalmitate], the MIC/FIC reads like this: (SNP 0% (agent alone)) 4 PPM; (in combination with SNP 0.2%) 4 PPM; (in combination with SNP 0.4%) 1 PPM; (in combination with SNP 0.6%) 0 PPM.

Turning to `CC(=O)O.CC(=O)O.NC(=N\CCCCCC/N=C(N)/N=C(\N)Nc1ccc(Cl)cc1)/N=C(\N)Nc1ccc(Cl)cc1` [CHA, Chlorhexidine diacetate], the “inhibitory concentration … compared to alone” value is recorded as “lower inhibitory concentrations”.

As for `CN(C)c1ccc(C(=C2C=CC(=[N+](C)C)C=C2)c2ccc(N(C)C)cc2)cc1` [GV, gentian violet], the “inhibitory concentration … compared to alone” value is “lower inhibitory concentrations”. Also, the MIC/FIC (SNP 0% (agent alone)) is listed as 32 PPM. Further, the MIC/FIC (in combination with SNP 0.2%) is 4 PPM. Also, where the note is “in combination with SNP 0.4%”, the MIC/FIC is given as 4 PPM. For the same molecule, the MIC/FIC (in combination with SNP 0.6%) is recorded as 0 PPM.

Source of the values: patent publication US20160331871A1, “Medical Devices Containing Nitroprusside and Antimicrobial Agents” (Teleflex Medical Incorporated, priority 2009, published 2016).
